From patent US9265773B2, “Tetracyclic heterocycle compounds and methods of use thereof for the treatment of viral diseases” (priority 2011, dated 2016)

Tests used:
HCV replicon genotype 1b = test: microbe, parasite or virus in culture; format: cell-based; conditions: genotype 1b replicon cells, incubated 96 hours, NS3/4A ELISA readout
HCV replicon genotype 1a = test: microbe, parasite or virus in culture; format: cell-based; conditions: genotype 1a replicon cells, incubated 96 hours, NS3/4A ELISA readout

With `CNC(=O)c1c(-c2ccc(F)cc2)oc2cc(N(C)S(C)(=O)=O)c(-c3ccc4c(n3)-c3cc5c(F)cccc5n3C(COC(=O)[C@@H]3CCCN3C(=O)OC)O4)cc12` (stereo partly shown) [Compound 104] the IC50 (HCV replicon genotype 1b; Hepatitis C virus, 96 h) was 4.8 nM and the IC50 (HCV replicon genotype 1a; Hepatitis C virus, 96 h) was 2.4 nM.

With `CNC(=O)c1c(-c2ccc(F)cc2)oc2cc(N(C)S(C)(=O)=O)c(-c3ccc4c(n3)-c3cc5c(F)cccc5n3C(CNC(=O)[C@@H]3CCCN3C(=O)OC)O4)cc12` (stereo partly drawn) [Compound 124, (2S)-methyl 2-(((11-fluoro-2-(2-(4-fluorophenyl)-3-(methylcarbamoyl)-6-(N-methylmethylsulfonamido)benzofuran-5-yl)-6H-pyrido[2′,3′:5,6][1,3]oxazino[3,4-a]indol-6-yl)methyl)carbamoyl)pyrrolidine-1-carboxylate] the IC50 (HCV replicon genotype 1b) was 4.5 nM and the IC50 (HCV replicon genotype 1a) was 19 nM.

For `CNC(=O)c1c(-c2ccc(F)cc2)oc2cc(N(C)S(C)(=O)=O)c(-c3ccc4c(n3)-c3nc5cccc(F)c5n3CO4)cc12` [Compound 140], the IC50 (HCV replicon genotype 1b; Hepatitis C virus, 96 h) was 5.9 nM and the IC50 (HCV replicon genotype 1a; Hepatitis C virus, 96 h) was 7.9 nM.

In the case of `CNC(=O)c1c(-c2ccc(F)cc2)oc2cc(N3CCN(C)C3=O)c(-c3ccc4c(n3)-c3cc5c(F)cccc5n3CO4)cc12` [Compound 178, 5-(11-fluoro-6H-pyrido[2′,3′:5,6][1,3]oxazino[3,4-a]indol-2-yl)-2-(4-fluorophenyl)-N-methyl-6-(3-methyl-2-oxoimidazolidin-1-yl)benzofuran-3-carboxamide], the IC50 (HCV replicon genotype 1b; Hepatitis C virus, 96 h) is reported as 28 nM and the IC50 (HCV replicon genotype 1a; Hepatitis C virus, 96 h) is reported as 133 nM.

`CNC(=O)c1c(-c2ccc(F)cc2)oc2cc(N(C)S(C)(=O)=O)c(-c3ccc4c(n3)-c3cc5cccc(F)c5n3CO4)cc12` [Compound 20] showed an IC50 (HCV replicon genotype 1b; Hepatitis C virus, 96 h) of 6.9 nM and an IC50 (HCV replicon genotype 1a; Hepatitis C virus, 96 h) of 6.7 nM.

In the case of `CCNC(=O)c1c(-c2ccc(F)cc2)oc2cc(N(C)S(C)(=O)=O)c(-c3ccc4c(n3)-c3cc5c(F)cccc5n3CO4)cc12` [Compound 156], the IC50 (HCV replicon genotype 1b; Hepatitis C virus, 96 h) is reported as 2.9 nM and the IC50 (HCV replicon genotype 1a; Hepatitis C virus, 96 h) is reported as 2.3 nM.

`CNC(=O)c1c(-c2ccc(F)cc2)oc2cc(N(C)S(C)(=O)=O)c(-c3ccc4c(n3)-c3cc5cccnc5n3CO4)cc12` [Compound 48, 2-(4-fluorophenyl)-N-methyl-6-(N-methylmethylsulfonamido)-5-(6H-pyrido[2,3-e]pyrido[3′,2′:4,5]pyrrolo[1,2-c][1,3]oxazin-2-yl)benzofuran-3-carboxamide] was tested, and the IC50 (HCV replicon genotype 1b; Hepatitis C virus, 96 h) was 2.6 nM and the IC50 (HCV replicon genotype 1a; Hepatitis C virus, 96 h) was 2.2 nM.

For `CNC(=O)c1c(-c2ccc(F)cc2)oc2cc(N(C)S(C)(=O)=O)c(-c3ccc4c(n3)-c3cc5c(F)cccc5n3C(CNCC(=O)O)O4)cc12` (stereo not shown) [Compound 116, 2-(((11-fluoro-2-(2-(4-fluorophenyl)-3-(methylcarbamoyl)-6-(N-methylmethylsulfonamido)benzofuran-5-yl)-6H-pyrido[2′,3′:5,6][1,3]oxazino[3,4-a]indol-6-yl)methyl)amino)acetic acid], the IC50 (HCV replicon genotype 1b; Hepatitis C virus, 96 h) was 9.4 nM and the IC50 (HCV replicon genotype 1a; Hepatitis C virus, 96 h) was 53 nM.

With `CNC(=O)c1c(-c2ccc(F)cc2)oc2cc(N(C)S(C)(=O)=O)c(-c3ccc4c(n3)-c3[nH]c5cccc(F)c5c3C(c3cccs3)O4)cc12` (stereo not shown) [Compound 66, 5-(7-fluoro-6-(thiophen-2-yl)-6,11-dihydropyrido[2′,3′:5,6]pyrano[4,3-b]indol-2-yl)-2-(4-fluorophenyl)-N-methyl-6-(N-methylmethylsulfonamido)benzofuran-3-carboxamide] the IC50 (HCV replicon genotype 1b; Hepatitis C virus, 96 h) was 59 nM and the IC50 (HCV replicon genotype 1a; Hepatitis C virus, 96 h) was 49 nM.

Work on `CNC(=O)c1c(-c2ccc(F)cc2)oc2cc(N(C)S(C)(=O)=O)c(-c3ccc4c(n3)-c3nc5ccccc5n3CO4)cc12` [Compound 136] yielded an IC50 (HCV replicon genotype 1b; Hepatitis C virus, 96 h) of 2.9 nM and an IC50 (HCV replicon genotype 1a; Hepatitis C virus, 96 h) of 3.5 nM.

With `CNC(=O)c1c(-c2ccc(F)cc2)oc2cc(N(C)S(C)(=O)=O)c(-c3ccc4c(n3)-c3cc5c(F)cncc5n3CO4)cc12` [Compound 46, 5-(11-fluoro-6H-pyrido[2,3-e]pyrido[4′,3′:4,5]pyrrolo[1,2-c][1,3]oxazin-2-yl)-2-(4-fluorophenyl)-N-methyl-6-(N-methylmethylsulfonamido)benzofuran-3-carboxamide] the IC50 (HCV replicon genotype 1b; Hepatitis C virus, 96 h) was 2.1 nM and the IC50 (HCV replicon genotype 1a; Hepatitis C virus, 96 h) was 1.5 nM.

In the case of `CNC(=O)c1c(-c2ccc(F)cc2)oc2cc(N(C)S(C)(=O)=O)c(-c3ccc4c(n3)-c3cc5c(F)cccc5n3[C@H](COC(=O)[C@@H](N)C(C)C)O4)cc12` [Compound 102, (S)—((S)-11-fluoro-2-(2-(4-fluorophenyl)-3-(methylcarbamoyl)-6-(N-methylmethylsulfonamido)benzofuran-5-yl)-6H-pyrido[2′,3′:5,6][1,3]oxazino[3,4-a]indol-6-yl)methyl 2-amino-3-methylbutanoate], the IC50 (HCV replicon genotype 1b; Hepatitis C virus, 96 h) is reported as 4.3 nM and the IC50 (HCV replicon genotype 1a; Hepatitis C virus, 96 h) is reported as 3.9 nM.

`CNC(=O)c1c(-c2ccc(F)cc2)oc2cc(N(C)S(C)(=O)=O)c(-c3ccc4c(n3)-c3cc5c(F)cccc5n3C(C(OC)OC)O4)cc12` (stereo not shown) [Compound 93] showed an IC50 (HCV replicon genotype 1b; Hepatitis C virus, 96 h) of 6 nM and an IC50 (HCV replicon genotype 1a; Hepatitis C virus, 96 h) of 4.4 nM.

Work on `CNC(=O)c1c(-c2ccc(F)cc2)oc2cc(N(C)S(C)(=O)=O)c(-c3ccc4c(n3)-c3cc5c(F)cccc5n3C(C(N)=O)O4)cc12` (stereo not shown) [Compound 105, 11-fluoro-2-(2-(4-fluorophenyl)-3-(methylcarbamoyl)-6-(N-methylmethylsulfonamido)benzofuran-5-yl)-6H-pyrido[2′,3′:5,6][1,3]oxazino[3,4-a]indole-6-carboxamide] yielded an IC50 (HCV replicon genotype 1b) of 0.9 nM and an IC50 (HCV replicon genotype 1a) of 1.4 nM.

`CNC(=O)c1c(-c2ccc(F)cc2)oc2cc(N(C)S(C)(=O)=O)c(-c3nc4c(cc3F)OCn3c-4cc4c(F)cccc43)cc12` [Compound 27] showed an IC50 (HCV replicon genotype 1b; Hepatitis C virus, 96 h) of 6.1 nM and an IC50 (HCV replicon genotype 1a; Hepatitis C virus, 96 h) of 2.9 nM.

`CNC(=O)c1c(-c2ccc(F)cc2)oc2cc(N(C)S(C)(=O)=O)c(-c3ccc4c(n3)-c3c(Cl)c5ccccc5n3CO4)cc12` [Compound 55, 5-(12-chloro-6H-pyrido[2′,3′:5,6][1,3]oxazino[3,4-a]indol-2-yl)-2-(4-fluorophenyl)-N-methyl-6-(N-methylmethylsulfonamido)benzofuran-3-carboxamide] gave an IC50 (HCV replicon genotype 1b; Hepatitis C virus, 96 h) of 49 nM and an IC50 (HCV replicon genotype 1a; Hepatitis C virus, 96 h) of 57 nM.

Work on `CNC(=O)c1c(-c2ccc(F)cc2)oc2cc(N(CCCF)S(C)(=O)=O)c(-c3ncc4c(n3)-c3cc5ccccc5n3CO4)cc12` [Compound 197] yielded an IC50 (HCV replicon genotype 1b; Hepatitis C virus, 96 h) of 4.4 nM and an IC50 (HCV replicon genotype 1a; Hepatitis C virus, 96 h) of 2.6 nM.

Compound `CNC(=O)c1c(-c2ccc(F)cc2)oc2cc(N(CCF)S(C)(=O)=O)c(-c3ccc4c(n3)-c3cc5c(F)cccc5n3CO4)cc12` [Compound 190] has an IC50 (HCV replicon genotype 1b; Hepatitis C virus, 96 h) of 3.8 nM and an IC50 (HCV replicon genotype 1a; Hepatitis C virus, 96 h) of 2.8 nM.

Compound `CNC(=O)c1c(-c2ccc(F)cc2)oc2cc(N(C)S(C)(=O)=O)c(-c3ccc4c(n3)-c3cc5cccc(CN(C)C)c5n3CO4)cc12` [Compound 71] has an IC50 (HCV replicon genotype 1b; Hepatitis C virus, 96 h) of 4.5 nM and an IC50 (HCV replicon genotype 1a; Hepatitis C virus, 96 h) of 13 nM.

Compound `CNC(=O)c1c(-c2ccc(F)cc2)oc2cc(N(CC3CC3)S(C)(=O)=O)c(-c3ccc4c(n3)-c3cc5c(F)cccc5n3CO4)cc12` [Compound 200] has an IC50 (HCV replicon genotype 1b; Hepatitis C virus, 96 h) of 22 nM and an IC50 (HCV replicon genotype 1a; Hepatitis C virus, 96 h) of 14 nM.

Work on `CN(c1cc2oc(-c3ccc(F)cc3)c(C(=O)NC3COC3)c2cc1-c1ccc2c(n1)-c1cc3c(F)cccc3n1CO2)S(C)(=O)=O` [Compound 152] yielded an IC50 (HCV replicon genotype 1b; Hepatitis C virus, 96 h) of 15 nM and an IC50 (HCV replicon genotype 1a; Hepatitis C virus, 96 h) of 14 nM.

For `CNC(=O)c1c(-c2ccc(F)cc2)oc2cc(N(C)S(C)(=O)=O)c(-c3ccc4c(c3)-c3[nH]c5ccccc5c3C(c3ccccc3)O4)cc12` (stereo not shown) [Compound 63, 2-(4-fluorophenyl)-N-methyl-6-(N-methylmethylsulfonamido)-5-(6-phenyl-6,11-dihydrochromeno[4,3-b]indol-2-yl)benzofuran-3-carboxamide], the IC50 (HCV replicon genotype 1b; Hepatitis C virus, 96 h) was 83 nM and the IC50 (HCV replicon genotype 1a; Hepatitis C virus, 96 h) was 92 nM.

`CNC(=O)c1c(-c2ccc(F)cc2)oc2cc(N(C)S(C)(=O)=O)c(-c3ccc4c(n3)-c3cc5c(F)cccc5n3C(C)O4)cc12` (stereo not shown) [Compound 37] showed an IC50 (HCV replicon genotype 1b; Hepatitis C virus, 96 h) of 5.9 nM and an IC50 (HCV replicon genotype 1a; Hepatitis C virus, 96 h) of 3.4 nM.
